This note sets out measurements from patent publication US20240263127A1, “CRYOPROTECTIVE COMPOSITIONS AND USES THEREOF” (DUPONT NUTRITION BIOSCIENCES APS, priority 2010, published 2024).

Structures are written as SMILES. Read-outs that look alike come from different tables or passages of the source.

In series [1] the test system is Lactobacillus acidophilus. The series is described as follows: Viable cell count after freeze drying with cryoprotectant. To be noted: for Recovery of viable cell from frozen pellets to freeze dried pellets: Example 2. Type of series: cell-based. How it is done: (§1) The cell count of the freeze dried material has been evaluated through a typical bacteria enumeration method used for lactic acid bacteria. In this method, the freeze dried bacteria were suspended into a MRS solution with a stomacher and revitalized in that solution for 30 minutes. The suspension was then successively diluted in bottles of peptone buffer and finally cultured on a MRS nutritive media for 48 to 72 hours at 38° C. under anaerobic condition. During that period, the bacteria form colonies on the nutritive media. Those colonies were counted and results were expressed as Colony Forming Units (CFU) per gram. Various cryoprotectants (see table 1) were mixed in a suspension containing, Lactobacillus acidophilus at an approximate cell count of 1E11 CFU/gr. The mixture, called stabilized concentrate, was kept at 4-8° C. for 1.5 hrs and continuously agitated before being frozen by dispensing droplets of the stabilized concentrate into liquid nitrogen. The resulting frozen droplets are called frozen pellets. The frozen pellets were freeze dried in a Virtis® freeze drier at 100 mT and a cell count measurement was performed just after freeze drying by performing an accelerated stability test. Various ratio of Inositol over Trehalose have been tested. The cryoprotectants were mixed for 1 to 3 hrs at 10-30° C. to a suspension containing Lactobacillus acidophilus at an approximate cell count of 1E11 CFU/gr. The mixture was frozen and freeze dried, and a cell count was performed just after freeze drying by performing an accelerated stability test, as disclosed in Example 1.

The subject of series [2] is Lactobacillus acidophilus. Type of series: cell-based. To be noted: for Viable cell counts after accelerated stability test: L. acidophilus; for Recovery of viable cell after accelerated stability test: Lactobacillus acidophilus, 14 days. The protocol:
as §1, with “gram. Long term stability of freeze dried bacteria as a function of time is a critical characteristic for commercial application. The long term stability can be evaluated by accelerated stability test consisting of placing the freeze dried cells into a sealed laminated aluminum foil in a constant temperature chamber maintained at 38° C. for fourteen days. The cell count of the freeze dried material is measured before and after the exposure to elevated temperature. A recovery rate of cells is calculated by subtracting the cells measured after the accelerated stability test from the initial cells measurement and dividing the subtraction results by the initial count. The accelerated stability test recovery rate gives a relative estimate of the long term cell stability.” for “gram.”

Setting [3] is: L. acidophilus suspension approx. 1E11 CFU/gr, freeze dried at 100 mT, Example 1.
Where [4] appears, read: freeze dried cells 38° C. for fourteen days, Example 1.
The mark [5] stands for this setting: L. acidophilus, Example 2, Trehalose/Inositol ratios.
Where [6] appears, read: 38° C. for fourteen days, Example 2.

With `O[C@H]1[C@H](O)[C@@H](O)[C@H](O)[C@@H](O)[C@H]1O` [Inositol alone, Inositol], the “Viable cell counts after freeze drying” value in series [1] (setting [3]) was determined as 3.2E+11 CFU/gr. Further, the “Viable cell counts after accelerated stability test” value in series [2] (setting [4]) is 1.3E+11 CFU/gr. Moreover, in series [2], the “Recovery of viable cell after accelerated stability test” value was 41.0%.

With `O[C@H]1[C@H](O)[C@@H](O)[C@H](O)[C@@H](O)[C@H]1O` [Trehalose 0.0 / Inositol 9.1, Inositol], in series [1] (L. acidophilus), the “Recovery of viable cell from frozen pellets to freeze dried pellets” value amounted to 81.2%. Further, in series [1] (setting [5]), the “Viable cell counts after freeze drying” value came out at 5.14E+11 CFU/gr. Also, the “Recovery of viable cells after accelerated stability test” value in series [2] amounted to 72.37%. Moreover, in series [2] (setting [6]), the “Viable cell counts after accelerated stability test” value was 3.72E+11 CFU/gr.

Regarding `O[C@H]1[C@H](O)[C@@H](O)[C@H](O)[C@@H](O)[C@H]1O` [Trehalose 0.0 / Inositol 20.0, Inositol], the “Recovery of viable cell from frozen pellets to freeze dried pellets” value in series [1] (L. acidophilus) is 94.7%. The “Viable cell counts after freeze drying” value in series [1] (setting [5]) is 3.70E+11 CFU/gr. The “Recovery of viable cells after accelerated stability test” value in series [2] is 65.41%. Further, the “Viable cell counts after accelerated stability test” value in series [2] (setting [6]) is listed as 2.42E+11 CFU/gr.

Consider `OC[C@H]1O[C@H](O[C@H]2O[C@H](CO)[C@@H](O)[C@H](O)[C@H]2O)[C@H](O)[C@@H](O)[C@@H]1O` [Trehalose alone experiment 1, Trehalose], for which, in series [1] (setting [3]), the “Viable cell counts after freeze drying” value was determined as 7.4E+11 CFU/gr. Moreover, the “Viable cell counts after accelerated stability test” value in series [2] (setting [4]) was found to be 2.2E+11 CFU/gr. The “Recovery of viable cell after accelerated stability test” value in series [2] is 29.0%.

For `OC[C@H]1O[C@H](O[C@H]2O[C@H](CO)[C@@H](O)[C@H](O)[C@H]2O)[C@H](O)[C@@H](O)[C@@H]1O` [Trehalose alone experiment 2, Trehalose], the “Viable cell counts after freeze drying” value in series [1] (setting [3]) came to 6.6E+11 CFU/gr. The “Viable cell counts after accelerated stability test” value in series [2] (setting [4]) amounted to 2.4E+11 CFU/gr. Also, the “Recovery of viable cell after accelerated stability test” value in series [2] is recorded as 38.0%.
